Measured values from patent US20220031800A1, “PEPTIDES FOR TREATING NON-EXUDATIVE MACULAR DEGENERATION AND OTHER DISORDERS OF THE EYE” (Allegro Pharmaceuticals, LLC, priority 2019, published 2022).
Square brackets hold non-standard residues; d marks the D form. Peptide text beside a SMILES is read from it. Cya = N[C@@H](CS(=O)(=O)O)C(=O)O

Assays:
primary human RPE cells [1] = assay: WST-1 cell viability of primary human RPE cells exposed to hydroquinone; assay type: cell-based; settings: 0.4 mM risuteganib co-treatment with HQ 125-180 uM
Procedure: (§1) Purpose: To determine if risuteganib protects against hydroquinone (HQ)-mediated cell injury, elevated ROS level and reduced mitochondrial membrane potential (Δψm) in cultured human RPE cells. Elevated ROS levels increase oxidative stress in the cells, leading to reduced cell health and cell death. Loss of ΔΨm is a marker for early cell death. Methods: Primary human RPE cells were seeded on collagen-coated 96-well plates in triplicates at 8K, 10K and […] cells/well, respectively. Cells reached 80% to 100% confluence 24 hours after plating, and confluent cells were then grown for an additional 4 or 5 days until growth was density arrested. On day 6 after plating, cells in the plate upper half were loaded with 20 μM CM-H2DCFDA (measures ROS level) and in the plate lower half with 10 μM JC-1 (measures Δψm) for 30 minutes at 37° C. […] For the ROS and Δψm assays, a fluorescence plate reader was used to quantify ROS production (490-nm excitation, 522-nm emission), and green monomer of JC-1 (490-nm excitation, 522-nm emission) and red JC-1 aggregate (535-nm excitation, 590-nm emission), respectively. […] The WST reagent was quantified with a plate reader at 440 nm and a reference wavelength at 690 nm. Data were normalized to untreated control as 100% and were expressed as the mean±SD.

[2] = test system: study eye of subjects with intermediate non-exudative AMD; assay: Humphrey visual field assessment (mean deviation, pattern standard deviation); assay type: in vivo, human
Source text: Twenty-five subjects were assigned to Group 1 and fifteen (15) subjects were assigned to Group 2.

[3] = test system: primary mouse Müller cells; assay: Trypan blue viability of primary mouse Müller cells exposed to kainic acid; assay type: cell-based, CD1 mice; settings: 1.0 mg/mL risuteganib alone
Source text: Purpose: Investigate neuroprotective properties of risuteganib in primary mouse Müller cells exposed to kainic acid, a neuroexcitatory compound that activates glutamate receptors, resulting in overstimulation and cell death. Retinal Müller cells support normal functions of neurons and their dysregulation can leads to loss of homeostasis and neuronal cell death.
Methods: Fresh retina were collected from CD1 mice and then mechanically dissociated with sterile Pasteur pipette into small aggregates and seeded into 35 mm culture dishes. All cultures were first left unchanged for 5-6 days and then replenished every 3-4 days. When the cell growth had reached around 80% confluency, retinal aggregates and debris were removed by media washes to form a purified cell monolayer. Cells were then exposed to the experimental conditions: (1) untreated control, (2) 1.0 mg/mL risuteganib, (3) 500 μM kainic acid (KA), and (4) 1.0 mg/mL risuteganib for 24 hours before 500 μM kainic acid exposure. 48 hours after kainic acid treatment, dead and live cell numbers were measured using Trypan blue exclusion assay on a hemocytometer.

primary human RPE cells [4] = assay: ROS level (CM-H2DCFDA) in primary human RPE cells exposed to hydroquinone; assay type: cell-based; settings: 0.4 mM risuteganib co-treatment with HQ 125-180 uM
Procedure: as §1

[5] = test system: study eye of subjects with intermediate non-exudative AMD; assay: Microperimetry (mean retinal sensitivity, number of loci summed); assay type: in vivo, human
Source text: Table 9, below, summarizes number of loci with reduced retinal sensitivity summed across assessments using a 20-dB threshold, an 11-dB threshold, and by measuring absolute scotoma.

primary human RPE cells [6] = assay: Mitochondrial membrane potential (JC-1) in primary human RPE cells exposed to hydroquinone; assay type: cell-based; settings: 0.4 mM risuteganib co-treatment with HQ 125-180 uM
Procedure: as §1

[7] = Week 12, Group 2 (1 mg IVT day 1 + wk 16)
[8] = Week 12, risuteganib group (1 mg IVT day 1 + wk 16)
[9] = Week 12 change, Group 2 (1 mg IVT day 1 + wk 16)
[10] = Week 12 change, risuteganib group (1 mg IVT day 1 + wk 16)
[11] = Week 32, Group 1 crossover (sham day 1, 1 mg IVT wk 16)
[12] = Week 32, Group 2 (1 mg IVT day 1 + wk 16)
[13] = Week 32, risuteganib group (1 mg IVT day 1 + wk 16)
[14] = Week 32, sham group after crossover to 1 risuteganib injection (wk 16)
[15] = Week 32 change, Group 1 crossover (sham day 1, 1 mg IVT wk 16)
[16] = Week 32 change, Group 2 (1 mg IVT day 1 + wk 16)
[17] = Week 32 change, risuteganib group (1 mg IVT day 1 + wk 16)
[18] = Week 32 change, sham group after crossover to 1 risuteganib injection (wk 16)

Structure (SMILES): C[C@@H](O)[C@H](NC(=O)[C@H](CS(=O)(=O)O)NC(=O)CNC(=O)[C@H](CCCNC(=N)N)NC(=O)CN)C(=O)N1CCC[C@H]1C(=O)O [risuteganib, Glycyl-L-arginylglycyl-3-sulfo-L-alanyl-L-threonyl-L-proline] (H-GRG[Cya]TP-OH)
- Improvement of HQ-reduced cell viability (primary human RPE cells [1]): 16%
- Humphrey visual field pattern standard deviation, mean [2, 7]: 3.350 dB
- Humphrey visual field pattern standard deviation, median [2, 7]: 1.630 dB
- Humphrey visual field mean deviation, mean [2, 8]: −5.502 dB
- Humphrey visual field mean deviation, median [2, 8]: −3.500 dB
- Humphrey visual field pattern standard deviation change, median [2, 9]: −0.090 dB
- Humphrey visual field mean deviation change, mean [2, 10]: 0.302 dB
- Humphrey visual field mean deviation change, median [2, 10]: 0.100 dB
- Humphrey visual field pattern standard deviation, mean [2, 11]: 2.790 dB
- Humphrey visual field pattern standard deviation, median [2, 11]: 2.410 dB
- Humphrey visual field pattern standard deviation, mean [2, 12]: 3.113 dB
- Humphrey visual field pattern standard deviation, median [2, 12]: 2.050 dB
- Humphrey visual field mean deviation, mean [2, 13]: −5.211 dB
- Humphrey visual field mean deviation, median [2, 13]: −3.470 dB
- Humphrey visual field mean deviation, mean [2, 14]: −4.055 dB
- Humphrey visual field mean deviation, median [2, 14]: −2.260 dB
- Humphrey visual field pattern standard deviation change, mean [2, 15]: 0.469 dB
- Humphrey visual field pattern standard deviation change, median [2, 15]: 0.360 dB
- Humphrey visual field pattern standard deviation change, mean [2, 16]: 0.115 dB
- Humphrey visual field pattern standard deviation change, median [2, 16]: 0.045 dB
- Humphrey visual field mean deviation change, mean [2, 17]: 0.191 dB
- Humphrey visual field mean deviation change, median [2, 17]: −0.040 dB
- Humphrey visual field mean deviation change, mean [2, 18]: 0.158 dB
- Humphrey visual field mean deviation change, median [2, 18]: −0.070 dB
- Change in cell viability, treatment alone [3]: did not induce detectable change in cell viability
- Reduction of HQ-induced ROS production (primary human RPE cells [4]): 61%
- Microperimetry number of loci summed change, median [5, 9]: 4.0
- Microperimetry number of loci summed change, mean ([5]; Week 12 change, Group 2 (1 mg IVT day 1 + wk 16), increase = worsening): 6.1
- Microperimetry number of loci summed (reduced sensitivity), mean [5, 12]: 80.7
- Microperimetry number of loci summed change, median [5, 15]: −1.0
- Microperimetry number of loci summed change, median [5, 16]: −3.0
- Decrease (improvement) in number of summed loci with reduced retinal sensitivity ([5]; risuteganib responders at Week 32 (FIG. 7)): 17.75
- Improvement of HQ-reduced Δψm (primary human RPE cells [6]): 16%
